# Measured values published in patent US12077503B2, “Substituted cyclic amides and their use as herbicides” (FMC CORPORATION, priority 2015, dated 2024).
# Legend:
# Assay type in all cases: in vivo
# [1] = tested on: barnyardgrass (Echinochloa crus-galli); assay: Test G Pre-Emergence Protocol; conditions: Echinochloa crus-galli, pre-emergence, 312 h, evaluated after 13 days; for pest or weed control at 15.625 g/ha: 15.625 g ai/ha, read-out: Barnyard grass damage rating (100=total damage to plant; 0=no damage to plant); for pest or weed control at 62.5 g/ha: 62.5 g ai/ha, 100=total damage to plant, 0=no damage to plant, read-out: plant damage rating, Barnyardgrass; for pest or weed control at 250 g/ha: 250 g ai/ha, read-out: Barnyardgrass damage rating (100=total damage to plant; 0=no damage to plant)
# Outline: (§1)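 Under a 24/16° C day/night regime with 14 h light and 65% humidity, sown pots were sprayed after one day with compound (15.625, 62.5 or 250 g/ha; 50:50 acetone/water, 0.5% Tween 20). Damage was assessed visually 13 days later, 0 to 100.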
# corn (Zea mays) [2] = assay: Test G Pre-Emergence Protocol; conditions: Zea mays, pre-emergence, 312 h, evaluated after 13 days; for plant injury at 15.625 g/ha: 15.625 g ai/ha; for plant injury at 15.625 g/ha / plant injury at 250 g/ha: read-out: Corn damage rating (100=total damage to plant; 0=no damage to plant); for plant injury at 62.5 g/ha: 62.5 g ai/ha, 100=total damage to plant, 0=no damage to plant, read-out: plant damage rating, Corn; for plant injury at 250 g/ha: 250 g ai/ha
# Outline: as §1
# [3] = tested on: giant foxtail (Setaria faberi); assay: Test G Pre-Emergence Protocol; conditions: Setaria faberi, pre-emergence, 312 h, evaluated after 13 days; for pest or weed control at 15.625 g/ha: 15.625 g ai/ha; for pest or weed control at 15.625 g/ha / pest or weed control at 250 g/ha: read-out: Foxtail, Giant damage rating (100=total damage to plant; 0=no damage to plant); for pest or weed control at 62.5 g/ha: 62.5 g ai/ha, 100=total damage to plant, 0=no damage to plant, read-out: plant damage rating, Foxtail, Giant; for pest or weed control at 250 g/ha: 250 g ai/ha
# Outline: as §1
# [4] = tested on: ivy-leaved morning glory (Ipomoea hederacea); assay: Test G Pre-Emergence Protocol; conditions: Ipomoea, pre-emergence, 312 h, evaluated after 13 days; for pest or weed control at 15.625 g/ha: 15.625 g ai/ha, read-out: Morning-glory, Ivy-leaved damage rating (100=total damage to plant; 0=no damage to plant); for pest or weed control at 62.5 g/ha: 62.5 g ai/ha, 100=total damage to plant, 0=no damage to plant, read-out: plant damage rating, Morningglory, Ivy-leaved; for pest or weed control at 250 g/ha: 250 g ai/ha, read-out: Morningglory, Ivy-leaved damage rating (100=total damage to plant; 0=no damage to plant)
# Outline: as §1
# [5] = tested on: redroot pigweed (Amaranthus retroflexus); assay: Test G Pre-Emergence Protocol; conditions: Amaranthus retroflexus, pre-emergence, 312 h, evaluated after 13 days; for pest or weed control at 15.625 g/ha: 15.625 g ai/ha; for pest or weed control at 15.625 g/ha / pest or weed control at 250 g/ha: read-out: Pigweed, Redroot damage rating (100=total damage to plant; 0=no damage to plant); for pest or weed control at 62.5 g/ha: 62.5 g ai/ha, 100=total damage to plant, 0=no damage to plant, read-out: plant damage rating, Pigweed, Redroot; for pest or weed control at 250 g/ha: 250 g ai/ha
# Outline: as §1
# [6] = tested on: velvetleaf (Abutilon theophrasti); assay: Test G Pre-Emergence Protocol; conditions: Abutilon theophrasti, pre-emergence, 312 h, evaluated after 13 days; for pest or weed control at 15.625 g/ha: 15.625 g ai/ha; for pest or weed control at 15.625 g/ha / pest or weed control at 250 g/ha: read-out: Velvetleaf damage rating (100=total damage to plant; 0=no damage to plant); for pest or weed control at 62.5 g/ha: 62.5 g ai/ha, 100=total damage to plant, 0=no damage to plant, read-out: plant damage rating, Velvetleaf; for pest or weed control at 250 g/ha: 250 g ai/ha
# Outline: as §1
# [7] = tested on: barnyardgrass (Echinochloa crus-galli); assay: Test G Post-Emergence Protocol; conditions: Echinochloa crus-galli, post-emergence, 312 h; for pest or weed control at 15.625 g/ha: 15.625 g ai/ha, evaluated after 13 days (100=total damage to plant; 0=no damage to plant), read-out: Barnyardgrass damage rating; for pest or weed control at 62.5 g/ha: 62.5 g ai/ha, read-out: Barnyardgrass damage rating (100=total damage to plant; 0=no damage to plant); for pest or weed control at 62.5 g/ha / pest or weed control at 250 g/ha: evaluated after 13 days; for pest or weed control at 250 g/ha: 250 g ai/ha, read-out: damage to plant, Barnyardgrass (100=total damage to plant; 0=no damage to plant)
# Outline: (§2)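 Values are percent visual injury at 13 days after treatment (0 none, 100 total). Treatment was a post-emergence spray at 15.625, 62.5 or 250 g/ha on 8-day-old pot plants kept at 24/16 °C.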
# corn (Zea mays) [8] = assay: Test G Post-Emergence Protocol; conditions: Zea mays, post-emergence, 312 h; for plant injury at 15.625 g/ha: 15.625 g ai/ha, evaluated after 13 days (100=total damage to plant; 0=no damage to plant), read-out: Corn damage rating; for plant injury at 62.5 g/ha: 62.5 g ai/ha, read-out: Corn damage rating (100=total damage to plant; 0=no damage to plant); for plant injury at 62.5 g/ha / plant injury at 250 g/ha: evaluated after 13 days; for plant injury at 250 g/ha: 250 g ai/ha, read-out: damage to plant, Corn (100=total damage to plant; 0=no damage to plant)
# Outline: as §2
# [9] = tested on: giant foxtail (Setaria faberi); assay: Test G Post-Emergence Protocol; conditions: Setaria faberi, post-emergence, 312 h; for pest or weed control at 15.625 g/ha: 15.625 g ai/ha, evaluated after 13 days (100=total damage to plant; 0=no damage to plant), read-out: Foxtail, Giant damage rating; for pest or weed control at 62.5 g/ha: 62.5 g ai/ha, read-out: Foxtail, Giant damage rating (100=total damage to plant; 0=no damage to plant); for pest or weed control at 62.5 g/ha / pest or weed control at 250 g/ha: evaluated after 13 days; for pest or weed control at 250 g/ha: 250 g ai/ha, read-out: damage to plant, Foxtail, Giant (100=total damage to plant; 0=no damage to plant)
# Outline: as §2
# [10] = tested on: ivy-leaved morning glory (Ipomoea hederacea); assay: Test G Post-Emergence Protocol; conditions: Ipomoea, post-emergence, 312 h; for pest or weed control at 15.625 g/ha: 15.625 g ai/ha, evaluated after 13 days (100=total damage to plant; 0=no damage to plant), read-out: Morningglory, Ivy-leaved damage rating; for pest or weed control at 62.5 g/ha: 62.5 g ai/ha, read-out: Morningglory, Ivy-leaved damage rating (100=total damage to plant; 0=no damage to plant); for pest or weed control at 62.5 g/ha / pest or weed control at 250 g/ha: evaluated after 13 days; for pest or weed control at 250 g/ha: 250 g ai/ha, read-out: damage to plant, Morningglory, Ivy-leaved (100=total damage to plant; 0=no damage to plant)
# Outline: as §2
# [11] = tested on: redroot pigweed (Amaranthus retroflexus); assay: Test G Post-Emergence Protocol; conditions: Amaranthus retroflexus, post-emergence, 312 h; for pest or weed control at 15.625 g/ha: 15.625 g ai/ha, evaluated after 13 days (100=total damage to plant; 0=no damage to plant), read-out: Pigweed, Redroot damage rating; for pest or weed control at 62.5 g/ha: 62.5 g ai/ha, read-out: Pigweed, Redroot damage rating (100=total damage to plant; 0=no damage to plant); for pest or weed control at 62.5 g/ha / pest or weed control at 250 g/ha: evaluated after 13 days; for pest or weed control at 250 g/ha: 250 g ai/ha, read-out: damage to plant, Pigweed, Redroot (100=total damage to plant; 0=no damage to plant)
# Outline: as §2
# [12] = tested on: velvetleaf (Abutilon theophrasti); assay: Test G Post-Emergence Protocol; conditions: Abutilon theophrasti, post-emergence, 312 h; for pest or weed control at 15.625 g/ha: 15.625 g ai/ha, evaluated after 13 days (100=total damage to plant; 0=no damage to plant), read-out: Velvetleaf damage rating; for pest or weed control at 62.5 g/ha: 62.5 g ai/ha, read-out: Velvetleaf damage rating (100=total damage to plant; 0=no damage to plant); for pest or weed control at 62.5 g/ha / pest or weed control at 250 g/ha: evaluated after 13 days; for pest or weed control at 250 g/ha: 250 g ai/ha, read-out: damage to plant, Velvetleaf (100=total damage to plant; 0=no damage to plant)
# Outline: as §2
SMILES,pest or weed control at 15.625 g/ha [1],pest or weed control at 62.5 g/ha [1],pest or weed control at 250 g/ha [1],plant injury at 15.625 g/ha (corn (Zea mays) [2]),plant injury at 62.5 g/ha (corn (Zea mays) [2]),plant injury at 250 g/ha (corn (Zea mays) [2]),pest or weed control at 15.625 g/ha [3],pest or weed control at 62.5 g/ha [3],pest or weed control at 250 g/ha [3],pest or weed control at 15.625 g/ha [4],pest or weed control at 62.5 g/ha [4],pest or weed control at 250 g/ha [4],pest or weed control at 15.625 g/ha [5],pest or weed control at 62.5 g/ha [5],pest or weed control at 250 g/ha [5],pest or weed control at 15.625 g/ha [6],pest or weed control at 62.5 g/ha [6],pest or weed control at 250 g/ha [6],pest or weed control at 15.625 g/ha [7],pest or weed control at 62.5 g/ha [7],also measured
Cc1ccc([C@H]2CN(C)C(=O)[C@@H]2C(=O)Nc2ccccc2F)cc1Cl (racemic) [Compound 1420],60%,70%,80%,0%,50%,70%,70%,80%,80%,0%,0%,0%,0%,0%,0%,0%,0%,0%,10%,40%,pest or weed control at 250 g/ha [7]: 40%; plant injury at 15.625 g/ha (corn (Zea mays) [8]): 10%; plant injury at 62.5 g/ha (corn (Zea mays) [8]): 40%; plant injury at 250 g/ha (corn (Zea mays) [8]): 60%; pest or weed control at 15.625 g/ha [9]: 50%; pest or weed control at 62.5 g/ha [9]: 60%; pest or weed control at 250 g/ha [9]: 60%; pest or weed control at 15.625 g/ha [10]: 0%; pest or weed control at 62.5 g/ha [10]: 10%; pest or weed control at 250 g/ha [10]: 0%; pest or weed control at 15.625 g/ha [11]: 0%; pest or weed control at 62.5 g/ha [11]: 0%; pest or weed control at 250 g/ha [11]: 20%; pest or weed control at 15.625 g/ha [12]: 0%; pest or weed control at 62.5 g/ha [12]: 0%; pest or weed control at 250 g/ha [12]: 10%
CN1C[C@@H](c2ccc(C(F)(F)F)cc2)[C@H](C(=O)Nc2cccc(F)n2)C1=O [Compound 1489],0%,0%,0%,0%,0%,0%,0%,0%,0%,0%,0%,0%,0%,0%,100%,0%,0%,0%,0%,0%,pest or weed control at 250 g/ha [7]: 30%; plant injury at 15.625 g/ha (corn (Zea mays) [8]): 10%; plant injury at 62.5 g/ha (corn (Zea mays) [8]): 10%; plant injury at 250 g/ha (corn (Zea mays) [8]): 40%; pest or weed control at 15.625 g/ha [9]: 0%; pest or weed control at 62.5 g/ha [9]: 0%; pest or weed control at 250 g/ha [9]: 40%; pest or weed control at 15.625 g/ha [10]: 0%; pest or weed control at 62.5 g/ha [10]: 0%; pest or weed control at 250 g/ha [10]: 0%; pest or weed control at 15.625 g/ha [11]: 0%; pest or weed control at 62.5 g/ha [11]: 0%; pest or weed control at 250 g/ha [11]: 10%; pest or weed control at 15.625 g/ha [12]: 0%; pest or weed control at 62.5 g/ha [12]: 0%; pest or weed control at 250 g/ha [12]: 0%
